Assay results published in patent publication US12594243B2, “Pharmaceutical formulations” (THERACOSBIO, LLC, priority 2020, dated 2026).

Assays:
[1] = quantitative mass balance studies using [^14C]-bexagliflozin; cited from earlier work
P-gp = P-gp (Homo sapiens, UniProt P08183); test: P-gp substrate observation; assay type: in vitro ADME
Source text: Because P-gp expression increases with distance along the small intestine, absorption is likely greater in the duodenum than the ileum, and quantitative mass balance studies using [^14C]-bexagliflozin have shown that colonic absorption is minimal (Zhang et al. Xenobiotica. 2019 Aug. 27:1-11. doi: 10.1080/00498254.2019.1654634). Because of the potential practical incompatibility of using an extended release tablet while aiming for most drug release to occur high in the small intestine, tablets of the invention advantageously include an adaptation that can help to retain them in the stomach. A large part of the extended release of bexagliflozin can thus occur in the stomach, permitting absorption of the drug to occur at the desired location in the small intestine, thereby providing an advantageous pharmacokinetic profile.

[2] = human, in vivo
Source text: In a drug-drug interaction clinical pharmacology study the effects of the GLP-1 receptor agonist exenatide on the pharmacokinetics of bexagliflozin were studied in a randomized crossover study. It is known that GLP-1 receptor agonists retard gastric emptying and because the bexagliflozin dosage form has a gastroretentive mechanism, the possibility that the retardation would adversely affect bexagliflozin delivery was considered important to address (see e.g., Guideline on the pharmacokinetic and clinical evaluation of modified release dosage forms (EMA/CPMP/EWP/280/96 Corr1) section 5.1.4.2.). In the study, participants were assigned to either receive bexagliflozin alone first, or combined treatment with bexagliflozin and exenatide first. Each group received both treatments alternately, in a crossover fashion (two-period, two-treatment crossover design), with the two treatment periods separated by a 7-day washout period. […] Although the endpoints of the confidence intervals fell outside of the range 80-125%, indicating an interaction leading to a change in exposure when bexagliflozin was administered following exenatide, the effect of exenatide on bexagliflozin pharmacokinetics was not so large as to jeopardize patient safety or to provoke a recommendation for a change in prescribing pattern. […] Absorption was delayed when bexagliflozin was administered 30 minutes after exenatide injection, with a median Tmax of 5.00 hours post-dose compared to 2.00 hours post-dose following administration of bexagliflozin alone.

P-gp, sequence (P08183 whole entry): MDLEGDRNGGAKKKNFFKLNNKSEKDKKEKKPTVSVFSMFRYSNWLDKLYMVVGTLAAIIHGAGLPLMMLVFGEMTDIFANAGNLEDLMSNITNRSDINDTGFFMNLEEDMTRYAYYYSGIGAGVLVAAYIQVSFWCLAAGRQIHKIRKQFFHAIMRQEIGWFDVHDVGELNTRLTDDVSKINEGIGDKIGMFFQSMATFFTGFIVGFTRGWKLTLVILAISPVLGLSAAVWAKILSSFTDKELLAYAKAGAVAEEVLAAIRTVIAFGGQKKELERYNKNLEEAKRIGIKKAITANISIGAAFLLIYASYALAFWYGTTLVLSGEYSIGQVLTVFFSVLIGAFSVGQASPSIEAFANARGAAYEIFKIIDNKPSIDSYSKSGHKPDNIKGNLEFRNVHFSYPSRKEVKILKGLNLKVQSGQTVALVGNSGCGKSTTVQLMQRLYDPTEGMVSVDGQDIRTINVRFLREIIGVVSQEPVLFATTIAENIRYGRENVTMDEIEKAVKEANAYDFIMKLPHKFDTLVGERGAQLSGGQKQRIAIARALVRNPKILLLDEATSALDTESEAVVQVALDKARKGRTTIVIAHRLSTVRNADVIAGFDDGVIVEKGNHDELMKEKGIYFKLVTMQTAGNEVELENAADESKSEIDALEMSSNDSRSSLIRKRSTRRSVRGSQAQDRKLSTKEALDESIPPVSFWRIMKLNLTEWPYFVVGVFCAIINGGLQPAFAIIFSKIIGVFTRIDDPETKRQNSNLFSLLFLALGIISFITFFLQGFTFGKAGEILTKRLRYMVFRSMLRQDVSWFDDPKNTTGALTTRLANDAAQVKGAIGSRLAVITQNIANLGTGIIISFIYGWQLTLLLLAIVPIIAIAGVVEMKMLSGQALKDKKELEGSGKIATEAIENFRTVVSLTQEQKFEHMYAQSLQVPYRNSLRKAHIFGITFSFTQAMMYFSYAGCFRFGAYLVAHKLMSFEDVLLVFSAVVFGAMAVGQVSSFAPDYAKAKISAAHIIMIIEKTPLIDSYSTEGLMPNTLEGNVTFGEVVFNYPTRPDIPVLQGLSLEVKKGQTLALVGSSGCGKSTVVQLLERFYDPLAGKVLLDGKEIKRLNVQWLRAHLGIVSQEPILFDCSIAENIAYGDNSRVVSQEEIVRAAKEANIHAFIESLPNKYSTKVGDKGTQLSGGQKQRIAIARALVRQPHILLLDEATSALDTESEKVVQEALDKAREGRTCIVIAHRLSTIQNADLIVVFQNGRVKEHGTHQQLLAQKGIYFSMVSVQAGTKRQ

**Q.** Which colonic absorption [1] does the source give for `OC[C@H]1O[C@@H](c2ccc(Cl)c(Cc3ccc(OCCOC4CC4)cc3)c2)[C@H](O)[C@@H](O)[C@@H]1O` [bexagliflozin, (2S,3R,4R,5S,6R)-2-(4-chloro-3-(4-(2-cyclopropoxyethoxy)benzyl)phenyl)-6-(hydroxymethyl)tetrahydro-2H-pyran-3,4,5-triol] here?
**A.** The colonic absorption was “minimal”.

**Q.** And the P-gp substrate status (P-gp)?
**A.** The P-gp substrate status was “P-gp substrate”.

**Q.** What about the “intra-subject variability for AUC0-t and AUC0-∞” value [2] of the same compound?
**A.** The value was less than 22%.

**Q.** And the “intra-subject variability for Cmax” value [2]?
**A.** The value was “approximately 32%”.

**Q.** And the “ratio of geometric least square means for AUC0-t, with exenatide to alone” value [2]?
**A.** Its value is 147.50%.

**Q.** And the “ratio of geometric least square means for AUC0-∞, with exenatide to alone” value [2]?
**A.** Its value is 137.56%.

**Q.** What about the “ratio of geometric least square means for Cmax, with exenatide to alone” value [2] of the same compound?
**A.** The value was 125.27%.

**Q.** And the “increase of AUC0-t compared to bexagliflozin alone” value ([2]; sc)?
**A.** Its value is “approximately 48%”.

**Q.** What about the “increase of AUC0-∞ compared to bexagliflozin alone” value ([2]; sc) of the same compound?
**A.** Its value is roughly 38%.

**Q.** What about the “increase of Cmax compared to bexagliflozin alone” value ([2]; sc) of the same compound?
**A.** Its value is roughly 25%.
